The subject of test [1] is shipping fever. Kind of test: Efficacy in depressing the body temperature of calves having shipping fever (Example 1). It is filed as in vivo. Conditions: 13 mg/kg i.m., three or four consecutive days. From the text: In vivo activity of BM123γ-hydrochloride and of isopropyl BM123γ for the control of shipping fever in calves.
Two hundred sick calves, with elevated temperatures and clinical signs of shipping fever are chosen for the experiment. The animals are allotted to four groups of 50 calves each. One group serves as nonmedicated, infected controls receiving placebos, the other groups receive intramuscular injections of the respective drugs for three or four consecutive days at the levels indicated in Table 1. […]

Test [2] relates to Pasteurella. In words: Bacterial isolation from tissues of sacrificed treated calves. It is filed as in vivo. Conditions: Calf No. 4, 4 days administered. The source says: At the end of the experiment, six calves are sacrificed, and animal tissues examined for aerobic and anaerobic bacteria. Pasteurella are isolated and identified from three of the sacrificed calves. No anaerobes are recovered from any tissues.

In test [3] the test system is shipping fever. In words: Gross necropsy findings of sacrificed treated calves. The format is in vivo. To be noted: Calf No. 4 (d), 4 days administered.
Test [4] deals with shipping fever. Kind of test: Control of shipping fever in young cattle: mortality and days to return to normal temperature (Example 2). The format is in vivo, calves. Conditions: 11.0 mg/kg i.m., 3 daily injections. The source says:
In vivo activity of Isopropyl BM123γ for the control of shipping fever in young cattle as compared to oxytetracycline.
Calves weighing 90.6 to 181.2 Kg received at the feedlot are processed as is normally done, except no antibacterial treatment is given. Processing includes vaccination with Infectious Bovine Rhinotracheitis (Bovine virus Diarrhea) Leptospirosis vaccine, administration of a Clostridium novyi, septicum, sordelli, chauvei bacterin, levamisole (1/2 oblet), i.m. administration of 3 ml of a vitamin A, D and E formulation, a pour-on formulation of 0,0-dimethyl-0-(2,4,5-trichlorophenyl) ester of phosphorothioic acid for the control of grubs and lice, and one DES (diethylstilbestrol) implant in an ear. In addition--and at the same time--the calves are branded, ear tagged, dehorned and castrated where applicable.
One to two days after arrival and processing, sick calves are removed from the holding pens and those with temperatures of 40.0° C. or higher and showing symptoms of respiratory disease are selected for the study.
A total of 300 calves are randomly allotted to four groups of 75 calves each. One group serves as infected unmedicated controls receiving a "blank" solution, the others receive intramuscularly between hip and pin bones, for a total of 3 daily injections of:
a. 11 mg/kg body weight of oxytetracycline, the maximum recommended dose;
b. 0.5 mg/kg body weight of Isopropyl BM123γ; or
c. 1.0 mg/kg body weight of Isopropyl BM123γ.
The preparation and composition of injectables for "b" and "c" are described in Example 5 below.
Temperatures are recorded daily until two successive readings of 39.7° C. or lower are recorded, at which time calves are moved from the "sick" pen to the "recovered" pen. Although some of the "recovered" calves continue to show symptoms of disease, the criterion of body temperature is selected since it is completely objective.
One hundred fifty-four calves are treated the first day, fifty the second and 96 the third day. Following treatment, each animal is observed and its temperature recorded for a total of 14 consecutive days. Each animal which dies is necropsied and duplicate samples of lung and mediastinal lymph node are taken for microbiological examination. Necropsy examinations confirm the presence of severe pneumonia in most animals which died.
These calves died early in the study from conditions which the treatments should not have been expected to control.

The subject of test [5] is P. hemolytica. In words: In vitro minimal inhibitory concentration against P. hemolytica isolates (Example 1). The format is cell-based. As to the method:
(§1) Minimal inhibitory concentrations (MIC) of eight Pasteurella isolates are also determined.

The test system of test [6] is P. multocida. In words: In vitro minimal inhibitory concentration against P. multocida isolates (Example 1). It is filed as cell-based. On the procedure: as §1
Test [7] has as its system P. multocida. Kind of test: MIC by tube dilution method against P. multocida (Example 3). The format is cell-based. To be noted: 24 hours, 37° C. On the procedure:
(§2) In vitro determination of the potency of Isopropyl BM123γ compared with oxytetracycline and gentamicin in selected bacterial isolates by a tube dilution method.
(§3) Serial two-fold dilutions of antibacterial agent are prepared in trypticase soy broth. To each tube containing 5 ml of broth, is added 0.1 ml of 10^-3 dilution of bacterial inoculum, adjusted prior to dilution of 44 percent transmission at 645 m,u. An inoculated broth, containing no drug is included as growth for each strain tested.

The test system of test [8] is P. hemolytica. Kind of test: MIC by tube dilution method against P. hemolytica (Example 3). The format is cell-based. To be noted: 24 hours, 37° C. On the procedure: as §2, §3

Turning to `CN(C)C1C(=O)C(C(N)=O)=C(O)C2(O)C(=O)C3=C(O)c4c(O)cccc4C(C)(O)C3C(O)C12` (stereo not drawn) [Oxytetracycline], in test [1], the “Calves below 39.4° C./total, 2 days after last Injection” value was 22/38 and the “Percent of calves below 39.4° C., 2 days after last Injection” value is 58%. Besides, in test [1] (mean initial 40.7), the “Mean Temperature 2 days after last Injection” value came to 39.4 °C. In addition, in test [2], the Bacteria isolated result was “P. Hemolytica + P. multocida”. Also, the Total cfu/g in test [2] (P. Hemolytica + P. multocida) was 9.1 × 10^6 cfu/g. The “Lung findings at necropsy” value in test [3] is “The lungs were consolidated and had miliary abscesses in 60% of their volume”. In test [4], the “Mortality, Percent” value amounted to 5.6% and the “average number of days to return to normal temperature” value was 5.33 days. The “Mortality, No. of Animals” value in test [4] (group of 75) was 4 No. of Animals. In addition, the “Days to Normal, No. of Animals” value in test [4] (normal = two successive readings of 39.7° C. or lower) is reported as 72 No. of Animals.
Consider Gentamicin, for which the MIC (as a rule, the least concentration at which growth counts as inhibited) in test [5] (isolate No. 1) stood at 4 µg/mL; in test [5] (isolate No. 2), 8 µg/mL; in test [5] (isolate No. 3) it was 2 µg/mL; in test [5] (isolate No. 4), 4 µg/mL; in test [5] (isolate No. 5) it was 4 µg/mL; in test [6] (isolate No. 6), 2 µg/mL. Besides, the minimal inhibitory concentration (MIC) worked out at 2 µg/mL in test [6] (isolate No. 7); 2 µg/mL in test [6] (isolate No. 8); 4.0 µg/mL in test [7] (isolate No. 1); 4.0 µg/mL in test [7] (isolate No. 2); 8.0 µg/mL in test [7] (isolate No. 3); 4.0 µg/mL in test [7] (isolate No. 4). The MIC in test [7] (isolate No. 5) amounted to 4.0 µg/mL; in test [7] (isolate No. 6), 4.0 µg/mL; in test [7] (isolate No. 7) it was 4.0 µg/mL; in test [8] (isolate No. 1) it was 8.0 µg/mL; in test [8] (isolate No. 2) it was 8.0 µg/mL; in test [8] (isolate No. 3), 4.0 µg/mL. The minimal inhibitory concentration (MIC) in test [8] (isolate No. 4) came out at 8.0 µg/mL; in test [8] (isolate No. 5), 4.0 µg/mL.

The values are drawn from patent US4170645A, “Antibacterial agent BM123γ, salts and alkyl derivatives thereof for the control of shipping fever in cattle” (American Cyanamid Company, priority 1978, dated 1979).
